Results published in ChEMBL document CHEMBL3097995, “NAD-based inhibitors with anticancer potential” (Bioorg Med Chem Lett, 2014).
pIC50, pKi: −log10 of the molar value.

Columns and labels:
[1] = target: Inosine-5'-monophosphate dehydrogenase 2 (Homo sapiens, UniProt P12268); experiment: Inhibition of IMPDH2 (unknown origin)
HT-29 = experiment: Antiproliferative activity against human HT-29 cells; type: functional, cell-based
Homo sapiens = organism: Homo sapiens; experiment: Selectivity ratio of Ki for IMPDH2 (unknown origin) to Ki for IMPDH1 (unknown origin)
HeLa = experiment: Antiproliferative activity against human HeLa cells; type: functional, cell-based
[2] = target: Inosine-5'-monophosphate dehydrogenase 1 (Homo sapiens, UniProt P20839); experiment: Inhibition of IMPDH1 (unknown origin)
Chain of Inosine-5'-monophosphate dehydrogenase 1 (P20839 whole entry): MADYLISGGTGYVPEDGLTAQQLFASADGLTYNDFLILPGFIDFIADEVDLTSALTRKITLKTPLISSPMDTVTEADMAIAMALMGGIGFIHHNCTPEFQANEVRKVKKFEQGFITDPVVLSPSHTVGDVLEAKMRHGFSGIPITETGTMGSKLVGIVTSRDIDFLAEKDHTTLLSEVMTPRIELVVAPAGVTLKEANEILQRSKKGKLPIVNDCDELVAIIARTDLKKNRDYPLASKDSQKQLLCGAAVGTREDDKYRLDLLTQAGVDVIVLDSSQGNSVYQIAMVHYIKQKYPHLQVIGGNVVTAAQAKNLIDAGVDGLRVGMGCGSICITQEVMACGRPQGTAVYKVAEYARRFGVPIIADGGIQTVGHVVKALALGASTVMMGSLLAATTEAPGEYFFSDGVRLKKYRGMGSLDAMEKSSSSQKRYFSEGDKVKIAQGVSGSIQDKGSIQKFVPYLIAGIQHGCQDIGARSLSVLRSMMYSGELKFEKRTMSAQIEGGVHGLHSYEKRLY

K562 = experiment: Antiproliferative activity against human K562 cells; type: functional, cell-based
HL-60 = experiment: Antiproliferative activity against human HL60 cells; type: functional, cell-based
DU-145 = experiment: Antiproliferative activity against human DU145 cells; type: functional, cell-based
[3] = Drug degradation in human plasma after 24 hrs; type: ADME, cell-free; conditions: read-out: Drug degradation
PC-3 = experiment: Antiproliferative activity against human PC3 cells; type: functional, cell-based
[4] = Binding affinity to human IMPDH

| Structure (SMILES) | pKi [1] | pIC50 (HT-29) | Ratio Ki (Homo sapiens) | pIC50 (HeLa) | pKi [2] | pIC50 (K562) | pIC50 (HL-60) | pIC50 (DU-145) | metabolised at 24 h [3] | pIC50 (PC-3) | pKi [4] |
| --- | --- | --- | --- | --- | --- | --- | --- | --- | --- | --- | --- |
| COc1c(C)c2c(c(O)c1CCOP(=O)(O)CP(=O)(O)OC[C@H]1O[C@@H](n3cnc4c(N)nc(-c5ccncc5)nc43)[C@H](O)[C@@H]1O)C(=O)OC2 | 7.85 | 5.70 | 23 | 6.00 | 9.22 | 6.40 |  |  |  |  |  |
| COc1c(C)c2c(c(O)c1C/C=C(\C)CCC(=O)OC[C@H]1O[C@@H](n3cnc4c(N)ncnc43)[C@H](O)[C@@H]1O)C(=O)OC2 | 6.99 |  |  |  | 6.79 | 6.30 | 5.03 | 5.24 | 20% | 4.70 |  |
| COc1c(C)c2c(c(O)c1C/C=C(\C)CCC(=O)O)C(=O)OC2 [MYCOPHENOLIC ACID] |  |  |  |  |  |  |  |  |  |  | 8.00 |
